The text below walks through data of patent US20250257041A1, “INDUCERS OF INTEGRATED STRESS RESPONSE TO TREAT CANCER” (The Board of Regents of The University of Texas System, priority 2022, published 2025).

Where two headings read alike, the source gives them in different places.

This assay relates to HCT116 WT. The experiment in a line: Proliferation of HCT116 colorectal cell line, Cell TiterGlo. It is filed as cell-based, human. The procedure: Briefly, compounds were tested for their effect on proliferation of HCT116 colorectal cell lines using Cell TiterGlo (Promega). Each compound was tested in a 10-point dose response experiment in triplicate. Multiple values in the column titled HCT116 WT reflect separate independent experiments. The three columns titled “HCT116 WT (repeat)”, “HCT116-CGN2KO” and “HCT116 WT+ISRIB” provide data for selected compounds that were tested simultaneously under three conditions. The HCT116 WT column lists IC50 against the wild type HCT116 colorectal cancer cell line. The HCT116-CGN2KO lists IC50 data for cells in which one component of the integrated stress response, GCN2, has been knocked out using CRISPR technology.
In general terms: In ATP-based viability assays light output follows the ATP content of the culture.

The mark [1] stands for this setting: wild type HCT116, 10-point dose response in triplicate, multiple values = separate independent experiments.
[2] abbreviates: Homo sapiens, HCT-116, wild type HCT116, 10-point dose response in triplicate, multiple values = separate independent experiments, read-out: HCT116 IC50 (uM) HCT116 WT.

As for `Cn1nc(-c2ccc(NC(=O)C3CCCO3)cc2)cc1NC(=O)c1ccccc1` (single isomer, unassigned) [SW394516 (isomer 1)], the “HCT116 IC50 (uM) HCT116 WT” value under setting [1] was “inactive”.

As usually defined, the IC50 is the concentration needed to halve the response being measured. In the case of `Cn1nc(-c2ccc(NC(=O)C3CCCO3)cc2)cc1NC(=O)c1ccccc1` (single isomer, unassigned) [SW394516 (isomer 2)], under setting [2], the IC50 stood at 0.77 µM.

`Cn1nc(-c2ccc(NC(=O)c3ccccc3Cl)cc2)cc1NC(=O)C1CCCC(NC(=O)OC(C)(C)C)C1` (single isomer, unassigned) [SW394868-isomer 2]: the IC50 under setting [2] was 0.12 µM.

With `Cn1nc(-c2ccc(NC(=O)c3ccccc3Cl)cc2)cc1NC(=O)[C@H]1CCC[C@@H](N)C1` (single isomer, unassigned) [SW394869-isomer 1], the IC50 under setting [2] is 0.04 µM.

Turning to `Cn1nc(-c2ccc(NC(=O)c3ccccc3)cc2)cc1NC(=O)c1ccccc1` [SW106593, N-(4-(5-Benzamido-1-methyl-1H-pyrazol-3-yl)phenyl)benzamide], the IC50 under setting [2] turned out to be 0.22 µM.

On to `COc1ccc(C(=O)Nc2cc(-c3ccc(NC(=O)OC(C)(C)C)cc3)nn2C)cc1` [SW388709, tert-Butyl-(4-(5-(4-methoxybenzamido)-1-methyl-1H-pyrazol-3-yl)phenyl)carbamate], for which the concentration for half-maximal inhibition (IC50) under setting [2] is 16 µM.

Take `COc1cccc(C(=O)Nc2ccc(-c3cc(NC(=O)c4ccccc4)n(C)n3)cc2)c1` [SW388711, N-(4-(5-Benzamido-1-methyl-1H-pyrazol-3-yl)phenyl)-3-methoxybenzamide]: under setting [2], the IC50 was 1.09 µM.

For `COc1cccc(C(=O)Nc2cc(-c3ccc(NC(=O)OC(C)(C)C)cc3)nn2C)c1` [SW388712, tert-Butyl (4-(5-(3-methoxybenzamido)-1-methyl-1H-pyrazol-3-yl)phenyl)carbamate], under setting [2], the IC50 stood at 0.69 µM.

With `Cn1nc(-c2ccc(NC(=O)OC(C)(C)C)cc2)cc1NC(=O)c1ccccc1` [SW388713, tert-Butyl (4-(5-benzamido-1-methyl-1H-pyrazol-3-yl)phenyl)carbamate], the IC50 under setting [2] amounted to 1.1 µM.

On to `Cn1nc(-c2ccc(N)cc2)cc1NC(=O)c1ccccc1` [SW388714, N-(3-(4-Aminophenyl)-1-methyl-1H-pyrazol-5-yl)benzamide], for which, under setting [2], the IC50 was determined as 16 µM.

As to `COc1cccc(C(=O)Nc2cc(-c3ccc(N)cc3)nn2C)c1` [SW388715, N-(3-(4-Aminophenyl)-1-methyl-1H-pyrazol-5-yl)-3-methoxybenzamide], the “HCT116 IC50 (uM) HCT116 WT” value under setting [1] is “inactive”.

Take `COc1ccc(C(=O)Nc2ccc(-c3cc(NC(=O)c4ccccc4)n(C)n3)cc2)cc1` [SW388716, N-(4-(5-Benzamido-1-methyl-1H-pyrazol-3-yl)phenyl)-4-methoxybenzamide]: the IC50 under setting [2] was found to be 19 µM.

Take `COc1ccc(C(=O)Nc2cc(-c3ccc(N)cc3)nn2C)cc1` [SW388717, N-(3-(4-Aminophenyl)-1-methyl-1H-pyrazol-5-yl)-4-methoxybenzamide]: the “HCT116 IC50 (uM) HCT116 WT” value under setting [1] was “inactive”.

In the case of `COc1ccc(C(=O)Nc2cc(-c3ccc(NC(=O)c4ccccc4)cc3)nn2C)cc1` [SW388718, N-(3-(4-Benzamidophenyl)-1-methyl-1H-pyrazol-5-yl)-4-methoxybenzamide], the IC50 under setting [2] was determined as 2.03 µM.

For the molecule `CSc1cccc(C(=O)Nc2cc(-c3ccc(NC(=O)c4ccccc4)cc3)nn2C)c1` [SW389160, N-(3-(4-Benzamidophenyl)-1-methyl-1H-pyrazol-5-yl)-3-(methylthio)benzamide], the IC50 was 0.226 µM (Homo sapiens, HCT-116, read-out: HCT116 IC50 (uM) HCT116 WT); 0.29 µM (Homo sapiens, HCT-116, read-out: HCT116 IC50 (uM) HCT116 WT (repeat)); 2.48 µM (read-out: HCT116 IC50 (uM) HCT116 WT + ISRIB, wild type HCT116, compound plus 10 nM of ISRIB).

For the molecule `C#CCOc1ccccc1C(=O)Nc1ccc(-c2cc(NC(=O)c3cccc(N=[N+]=[N-])c3)n(C)n2)cc1` [SW393066, N-(4-(5-(3-Azidobenzamido)-1-methyl-1H-pyrazol-3-yl)phenyl)-2-(prop-2-yn-1-yloxy)benza-mide], the IC50 by setting is: (wild type HCT116, 10-point dose response in triplicate, multiple values = separate independent experiments, read-out: HCT116 IC50 (uM) HCT116 WT) 9.4 µM; (wild type HCT116, tested simultaneously with GCN2KO and +ISRIB, read-out: HCT116 IC50 (uM) HCT116 WT (repeat)) 7.18 µM.

For the molecule `C#Cc1cccc(C(=O)Nc2cc(-c3ccc(NC(=O)c4ccccc4N=[N+]=[N-])cc3)nn2C)c1` [SW393185, 2-Azido-N-(4-(5-(3-ethynylbenzamido)-1-methyl-1H-pyrazol-3-yl)phenyl)benzamide], the IC50 under setting [2] was 0.13 µM.
